According to patent US10537563B2, “Methods for treating ocular disease using inhibitors of CSF-1R” (NOVARTIS AG, priority 2016, dated 2020):

Key:
[1] = system: cytokine-polarized human macrophages (M1 or M2); assay: Survival of fully differentiated, cytokine-polarized human macrophages; format: cell-based
Method: (§1) Freshly isolated human PBMCs were used to purify human monocytes by negative selection using an indirect magnetic labeling system. […] Soluble factors such as cytokines (VEGFa, IL-6 etc.) and chemokines (IL-8, MCP-1, MMP9 etc.) in the culture supernatant were measured using commercial ELISA kits. The in vitro survival of human macrophages was measured using a commercially available CellTiter-Glo® system. Most observed results were repeated in multiple donors (n>5).

TRKB = TRKB (Homo sapiens, UniProt Q16620); assay: In vitro kinase assay (Table 1); format: biochemical
PIK3C_VPS34 = PIK3C_VPS34 (Homo sapiens, UniProt Q8NEB9); assay: In vitro kinase assay (Table 1); format: biochemical
PIK3Cbeta = PIK3Cbeta (Homo sapiens, UniProt P42338); assay: In vitro kinase assay (Table 1); format: biochemical
BAF/Tel-FGFR2-Q1/sACP = target: T1, BAF/Tel-FGFR2-Q1/sACP (Homo sapiens, UniProt P21802); assay: BaF3 proliferation assay; format: cell-based, murine
T1 construct: fused on or other part: P41212 (Transcription factor ETV6)

BAF/bRaf Pim1-1/sACP = assay: BaF3 proliferation assay; format: cell-based, murine; conditions: Mus musculus
BAF/Tel-TRKC-Q2/sACP = target: T2, BAF/Tel-TRKC-Q2/sACP (Homo sapiens, UniProt Q16288); assay: BaF3 proliferation assay; format: cell-based, murine
T2 construct: fused on or other part: P41212 (Transcription factor ETV6)

PDK_1 = PDK_1 (Homo sapiens, UniProt O15530); assay: In vitro kinase assay (Table 1); format: biochemical
Nek2 = Nek2 (Homo sapiens, UniProt P51955); assay: In vitro kinase assay (Table 1); format: biochemical
TRKC = TRKC (Homo sapiens, UniProt Q16288); assay: In vitro kinase assay (Table 1); format: biochemical
BaF-Tel-FGFR3 = target: T3, BaF-Tel-FGFR3 (Homo sapiens, UniProt P22607); assay: BaF3 proliferation assay; format: cell-based, murine
T3 construct: fused on or other part: P41212 (Transcription factor ETV6)

BAF/Tel-Tie1-Q2/sACP = target: T4, BAF/Tel-Tie1-Q2/sACP (Homo sapiens, UniProt P35590); assay: BaF3 proliferation assay; format: cell-based, murine
T4 construct: fused on or other part: P41212 (Transcription factor ETV6)

CD163 = CD163 expression in M2c macrophages; format: cell-based, human
Method: as §1

BAF/Tel-KDR-Q4/sACP = target: T5, BAF/Tel-KDR-Q4/sACP (Homo sapiens, UniProt P35968); assay: BaF3 proliferation assay; format: cell-based, murine
T5 construct: fused on or other part: P41212 (Transcription factor ETV6)

BAF/Tel-TRKA-Q.3/sACP = target: T6, BAF/Tel-TRKA-Q.3/sACP (Homo sapiens, UniProt P04629); assay: BaF3 proliferation assay; format: cell-based, murine
T6 construct: fused on or other part: P41212 (Transcription factor ETV6)

human macrophages [2] = assay: In vitro survival of human macrophages (CellTiter-Glo); format: cell-based; conditions: 1 and 10 μM
Method: as §1

VEGFa = VEGFa production by human macrophages; format: cell-based; conditions: stimulation with MCSF or IL-34
Method: as §1
Activated human macrophages are a source of VEGFa. Human macrophages produce VEGFa following stimulation with MCSF or IL-34.

Ck1 delta = Ck1 delta (Homo sapiens, UniProt P48730); assay: In vitro kinase assay (Table 1); format: biochemical
TSSK1 = TSSK1 (Homo sapiens, UniProt Q9BXA7); assay: In vitro kinase assay (Table 1); format: biochemical
Pim2 = Pim2 (Homo sapiens, UniProt Q9P1W9); assay: In vitro kinase assay (Table 1); format: biochemical
MMP-9 = MMP-9 production by human monocytes (ELISA); format: cell-based; conditions: Monocyte
Method: as §1

Hck = Hck (Homo sapiens, UniProt P08631); assay: In vitro kinase assay (Table 1); format: biochemical
BAF/Tel-BMX-1.2/sACP = target: T7, BAF/Tel-BMX-1.2/sACP (Homo sapiens, UniProt P51813); assay: BaF3 proliferation assay; format: cell-based, murine
T7 construct: fused on or other part: P41212 (Transcription factor ETV6)

human macrophages [3] = assay: CSF-1 and IL-34 mediated macrophage survival; format: cell-based; conditions: 0.1 to 10 μM; 4 donors
Method: as §1
A dose range (0 to 100 ng/ml) of CSF-1 or IL-34 was tested and macrophage survival positively correlated with increasing dose of CSF-1 or IL-34 with no difference between the 2 factors observed.

BAF/Tel-RON-4.1/sACP = target: T8, BAF/Tel-RON-4.1/sACP (Homo sapiens, UniProt Q04912); assay: BaF3 proliferation assay; format: cell-based, murine
T8 construct: fused on or other part: P41212 (Transcription factor ETV6)

BAF/Tel-Src-3.1/sACP = target: T9, BAF/Tel-Src-3.1/sACP (Homo sapiens, UniProt P12931); assay: BaF3 proliferation assay; format: cell-based, murine
T9 construct: fused on or other part: P41212 (Transcription factor ETV6)

FGFR1 = FGFR1 (Homo sapiens, UniProt P11362); assay: In vitro kinase assay (Table 1); format: biochemical
BAF/Tel-Lyn-1.2/sACP = target: T10, BAF/Tel-Lyn-1.2/sACP (Homo sapiens, UniProt P07948); assay: BaF3 proliferation assay; format: cell-based, murine
T10 construct: fused on or other part: P41212 (Transcription factor ETV6)

smMLCK = smMLCK (Homo sapiens, UniProt Q15746); assay: In vitro kinase assay (Table 1); format: biochemical
BAF/Tel-FGFR3-Q2/sACP = target: T11, BAF/Tel-FGFR3-Q2/sACP (Homo sapiens, UniProt P22607); assay: BaF3 proliferation assay; format: cell-based, murine
T11 construct: fused on or other part: P41212 (Transcription factor ETV6)

PKC_epsilon = PKC_epsilon (Homo sapiens, UniProt Q02156); assay: In vitro kinase assay (Table 1); format: biochemical
BAF/Tel-Lck-2.1/sACP = target: T12, BAF/Tel-Lck-2.1/sACP (Homo sapiens, UniProt P06239); assay: BaF3 proliferation assay; format: cell-based, murine
T12 construct: fused on or other part: P41212 (Transcription factor ETV6)

PKC_alpha = PKC_alpha (Homo sapiens, UniProt P17252); assay: In vitro kinase assay (Table 1); format: biochemical
Dyrk3 = Dyrk3 (Homo sapiens, UniProt O43781); assay: In vitro kinase assay (Table 1); format: biochemical
ROS = ROS (Homo sapiens, UniProt P08922); assay: In vitro kinase assay (Table 1); format: biochemical
CSF-1 receptor = CSF-1 receptor expression on human monocytes; format: cell-based; conditions: day 1 to day 3
Method: as §1

T10 sequence (P07948 247-501 limits assumed, change not shown): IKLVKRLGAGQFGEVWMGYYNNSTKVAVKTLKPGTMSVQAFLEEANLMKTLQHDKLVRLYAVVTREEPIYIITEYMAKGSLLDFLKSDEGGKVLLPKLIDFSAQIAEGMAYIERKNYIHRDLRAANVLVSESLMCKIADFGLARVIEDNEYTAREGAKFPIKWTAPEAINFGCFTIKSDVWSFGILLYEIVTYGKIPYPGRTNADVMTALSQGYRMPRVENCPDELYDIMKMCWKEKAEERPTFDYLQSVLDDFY
T8 sequence (Q04912 1082-1345 limits assumed, change not shown): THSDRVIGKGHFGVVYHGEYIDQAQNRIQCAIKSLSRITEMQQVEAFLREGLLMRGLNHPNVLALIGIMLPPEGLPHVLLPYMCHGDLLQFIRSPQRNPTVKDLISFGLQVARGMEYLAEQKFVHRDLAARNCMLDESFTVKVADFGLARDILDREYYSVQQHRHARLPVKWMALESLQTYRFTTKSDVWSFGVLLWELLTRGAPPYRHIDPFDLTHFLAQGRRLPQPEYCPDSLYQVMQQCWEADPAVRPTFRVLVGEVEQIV
T2 sequence (Q16288 whole entry, change not shown, the tested form may be a part): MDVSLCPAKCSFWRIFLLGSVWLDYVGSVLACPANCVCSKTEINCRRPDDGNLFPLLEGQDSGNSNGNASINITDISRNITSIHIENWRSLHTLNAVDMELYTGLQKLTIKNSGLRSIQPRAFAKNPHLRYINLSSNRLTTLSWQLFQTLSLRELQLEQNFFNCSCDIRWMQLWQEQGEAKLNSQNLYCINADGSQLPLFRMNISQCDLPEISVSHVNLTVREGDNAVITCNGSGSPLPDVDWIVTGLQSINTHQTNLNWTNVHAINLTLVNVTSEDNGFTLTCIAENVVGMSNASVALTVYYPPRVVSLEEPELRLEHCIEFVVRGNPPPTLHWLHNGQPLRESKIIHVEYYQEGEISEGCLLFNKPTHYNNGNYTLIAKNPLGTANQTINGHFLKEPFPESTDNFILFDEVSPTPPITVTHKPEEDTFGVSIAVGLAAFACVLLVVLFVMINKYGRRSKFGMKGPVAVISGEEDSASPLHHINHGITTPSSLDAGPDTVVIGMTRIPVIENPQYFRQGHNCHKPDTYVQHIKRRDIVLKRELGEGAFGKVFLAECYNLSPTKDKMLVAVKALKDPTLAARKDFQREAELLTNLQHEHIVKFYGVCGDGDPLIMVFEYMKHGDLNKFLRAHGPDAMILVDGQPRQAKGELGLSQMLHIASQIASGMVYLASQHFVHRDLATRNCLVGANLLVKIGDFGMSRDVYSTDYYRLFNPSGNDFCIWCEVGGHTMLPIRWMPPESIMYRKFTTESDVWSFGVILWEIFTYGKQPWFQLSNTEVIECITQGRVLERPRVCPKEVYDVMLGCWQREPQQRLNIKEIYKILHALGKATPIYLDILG
PIK3C_VPS34, sequence (Q8NEB9 whole entry): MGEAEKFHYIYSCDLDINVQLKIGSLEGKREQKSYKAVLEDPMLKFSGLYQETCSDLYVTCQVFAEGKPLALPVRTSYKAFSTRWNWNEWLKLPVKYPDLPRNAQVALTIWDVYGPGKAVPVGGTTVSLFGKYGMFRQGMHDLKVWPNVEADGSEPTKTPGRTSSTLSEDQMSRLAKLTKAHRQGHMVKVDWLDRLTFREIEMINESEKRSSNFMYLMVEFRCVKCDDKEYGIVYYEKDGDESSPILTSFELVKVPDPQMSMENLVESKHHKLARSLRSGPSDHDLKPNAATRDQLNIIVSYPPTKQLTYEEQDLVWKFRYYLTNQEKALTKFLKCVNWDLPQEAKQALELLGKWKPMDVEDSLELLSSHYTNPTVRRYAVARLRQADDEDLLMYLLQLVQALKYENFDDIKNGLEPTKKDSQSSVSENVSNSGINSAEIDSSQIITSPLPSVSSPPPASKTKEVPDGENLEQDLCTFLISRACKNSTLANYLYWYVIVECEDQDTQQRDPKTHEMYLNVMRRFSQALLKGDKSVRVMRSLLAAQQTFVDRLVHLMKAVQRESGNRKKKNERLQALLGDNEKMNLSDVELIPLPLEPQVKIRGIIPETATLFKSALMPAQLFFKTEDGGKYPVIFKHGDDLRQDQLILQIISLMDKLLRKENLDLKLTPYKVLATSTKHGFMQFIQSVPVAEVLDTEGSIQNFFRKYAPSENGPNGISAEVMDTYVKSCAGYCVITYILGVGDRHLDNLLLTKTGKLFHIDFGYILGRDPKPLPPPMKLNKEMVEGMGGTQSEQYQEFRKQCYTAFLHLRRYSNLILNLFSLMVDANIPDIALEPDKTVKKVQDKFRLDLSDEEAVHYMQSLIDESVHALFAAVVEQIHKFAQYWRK
T6 sequence (P04629 510-796 limits assumed, change not shown): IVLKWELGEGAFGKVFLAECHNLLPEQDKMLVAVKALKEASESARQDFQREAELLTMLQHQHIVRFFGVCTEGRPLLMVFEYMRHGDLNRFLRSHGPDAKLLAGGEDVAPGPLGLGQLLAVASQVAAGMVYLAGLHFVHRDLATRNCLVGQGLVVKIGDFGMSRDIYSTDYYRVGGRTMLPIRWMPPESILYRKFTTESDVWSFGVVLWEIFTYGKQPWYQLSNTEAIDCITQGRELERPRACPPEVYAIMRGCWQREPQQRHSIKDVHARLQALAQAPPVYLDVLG
T3 sequence (P22607 472-761 limits assumed, change not shown): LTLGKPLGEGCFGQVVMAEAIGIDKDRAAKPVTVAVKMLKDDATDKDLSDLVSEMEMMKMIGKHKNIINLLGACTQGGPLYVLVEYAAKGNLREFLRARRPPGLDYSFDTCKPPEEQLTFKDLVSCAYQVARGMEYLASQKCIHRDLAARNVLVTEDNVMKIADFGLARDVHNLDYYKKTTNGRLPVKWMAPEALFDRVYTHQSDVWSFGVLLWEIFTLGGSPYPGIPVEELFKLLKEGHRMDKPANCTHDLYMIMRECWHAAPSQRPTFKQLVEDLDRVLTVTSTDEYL
T11 sequence (P22607 472-761 limits assumed, change not shown): as above
T12 sequence (P06239 245-498 limits assumed, change not shown): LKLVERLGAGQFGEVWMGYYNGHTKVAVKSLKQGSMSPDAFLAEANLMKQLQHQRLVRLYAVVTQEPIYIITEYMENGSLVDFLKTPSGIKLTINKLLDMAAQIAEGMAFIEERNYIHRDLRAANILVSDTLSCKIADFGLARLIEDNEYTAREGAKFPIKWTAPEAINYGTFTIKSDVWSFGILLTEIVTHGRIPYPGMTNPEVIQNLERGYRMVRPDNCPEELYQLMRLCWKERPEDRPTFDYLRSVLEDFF
TSSK1, sequence (Q9BXA7 whole entry, species assumed): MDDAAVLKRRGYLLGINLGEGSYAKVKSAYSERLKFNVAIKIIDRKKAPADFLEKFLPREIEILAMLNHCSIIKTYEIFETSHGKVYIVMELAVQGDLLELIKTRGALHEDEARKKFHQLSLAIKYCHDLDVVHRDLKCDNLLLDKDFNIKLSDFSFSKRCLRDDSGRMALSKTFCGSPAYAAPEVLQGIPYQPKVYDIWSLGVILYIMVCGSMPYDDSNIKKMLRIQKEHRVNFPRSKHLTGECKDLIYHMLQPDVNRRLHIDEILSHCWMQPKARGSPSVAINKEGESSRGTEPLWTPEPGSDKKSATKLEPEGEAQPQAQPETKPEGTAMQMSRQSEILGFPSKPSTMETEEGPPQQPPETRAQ
Pim2, sequence (Q9P1W9 whole entry, species assumed): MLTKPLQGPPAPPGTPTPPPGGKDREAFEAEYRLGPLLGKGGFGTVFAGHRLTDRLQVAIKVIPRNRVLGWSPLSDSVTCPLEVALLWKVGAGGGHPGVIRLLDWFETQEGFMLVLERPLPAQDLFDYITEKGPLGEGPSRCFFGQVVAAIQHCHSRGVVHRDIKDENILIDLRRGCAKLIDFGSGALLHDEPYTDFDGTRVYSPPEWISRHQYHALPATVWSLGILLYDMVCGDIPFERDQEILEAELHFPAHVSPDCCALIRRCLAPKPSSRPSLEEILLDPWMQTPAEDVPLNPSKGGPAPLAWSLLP
FGFR1, sequence (P11362 22-822, species assumed): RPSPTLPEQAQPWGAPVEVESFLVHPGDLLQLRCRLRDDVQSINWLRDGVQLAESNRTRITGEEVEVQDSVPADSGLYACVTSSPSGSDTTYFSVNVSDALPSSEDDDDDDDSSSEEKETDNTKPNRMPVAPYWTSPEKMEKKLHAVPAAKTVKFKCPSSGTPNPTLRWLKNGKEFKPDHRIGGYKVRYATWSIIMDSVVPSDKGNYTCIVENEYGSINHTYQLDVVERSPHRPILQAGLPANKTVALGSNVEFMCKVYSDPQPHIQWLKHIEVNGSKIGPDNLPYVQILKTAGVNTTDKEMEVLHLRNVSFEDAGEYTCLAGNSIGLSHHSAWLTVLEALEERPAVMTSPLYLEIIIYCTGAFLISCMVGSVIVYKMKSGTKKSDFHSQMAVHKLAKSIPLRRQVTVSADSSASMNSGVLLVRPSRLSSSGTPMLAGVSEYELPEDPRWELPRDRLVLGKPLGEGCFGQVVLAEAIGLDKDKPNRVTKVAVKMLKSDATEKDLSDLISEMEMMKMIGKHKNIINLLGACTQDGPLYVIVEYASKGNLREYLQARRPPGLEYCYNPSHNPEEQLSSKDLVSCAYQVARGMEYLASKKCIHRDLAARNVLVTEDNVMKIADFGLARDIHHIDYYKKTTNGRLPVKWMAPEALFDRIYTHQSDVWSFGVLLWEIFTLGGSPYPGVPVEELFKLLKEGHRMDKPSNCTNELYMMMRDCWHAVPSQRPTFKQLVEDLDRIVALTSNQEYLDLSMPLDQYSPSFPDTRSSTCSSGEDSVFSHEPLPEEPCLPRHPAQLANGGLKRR
T9 sequence (P12931 270-523 limits assumed, change not shown): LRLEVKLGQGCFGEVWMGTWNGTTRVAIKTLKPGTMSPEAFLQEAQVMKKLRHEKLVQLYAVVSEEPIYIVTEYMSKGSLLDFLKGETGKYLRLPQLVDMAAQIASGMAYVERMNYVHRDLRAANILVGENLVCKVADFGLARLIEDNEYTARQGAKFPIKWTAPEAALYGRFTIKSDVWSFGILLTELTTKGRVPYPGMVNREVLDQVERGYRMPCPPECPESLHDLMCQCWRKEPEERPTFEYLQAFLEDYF

CNC(=O)c1cc(Oc2ccc3nc(NC4CCCCC4O)sc3c2)ccn1 (stereo not shown) [Compound (I)]
decreased the viability: viability of human macrophages (CTG values and light microscope pictures) (human macrophages [2])
no Compound (I) dose effect: CD163 expression in M2c macrophages (CD163)
significantly affects: CSF-1 mediated macrophage survival (human macrophages [3]) | IL-34 mediated macrophage survival (human macrophages [3])
> 10 µM: IC50 (TRKB) | EC50 (BAF/Tel-FGFR2-Q1/sACP) | EC50 (BAF/bRaf Pim1-1/sACP) | EC50 (BAF/Tel-TRKC-Q2/sACP) | IC50 (Nek2) | IC50 (TRKC) | EC50 (BaF-Tel-FGFR3) | EC50 (BAF/Tel-Tie1-Q2/sACP) | EC50 (BAF/Tel-KDR-Q4/sACP) | EC50 (BAF/Tel-TRKA-Q.3/sACP) | IC50 (Ck1 delta) | IC50 (TSSK1) | IC50 (Hck) | EC50 (BAF/Tel-BMX-1.2/sACP) | EC50 (BAF/Tel-RON-4.1/sACP) | EC50 (BAF/Tel-Src-3.1/sACP) | EC50 (BAF/Tel-Lyn-1.2/sACP) | IC50 (smMLCK) | EC50 (BAF/Tel-FGFR3-Q2/sACP) | EC50 (BAF/Tel-Lck-2.1/sACP) | IC50 (PKC_alpha) | IC50 (Dyrk3) | IC50 (ROS)
did not affect: survival of fully differentiated, cytokine-polarized human macrophages (M1 or M2) [1]
increased: CSF-1 receptor expression on human monocytes (CSF-1 receptor)
30 to 50%: inhibition at 0.05 µM (MMP-9)
significantly decreased: VEGFa levels of human macrophages (VEGFa)
> 25 µM: IC50 (PIK3C_VPS34) | IC50 (PIK3Cbeta) | IC50 (PDK_1) | IC50 (Pim2) | IC50 (FGFR1) | IC50 (PKC_epsilon)
